Patent publication US9701670B2, “Pyrazolyl-ureas as kinase inhibitors” (RESPIVERT LIMITED, priority 2013, dated 2017)

Columns and labels:
[1] = test system: Differentiated U937 cells; experiment: (l) Cell viability: MTT assay; format: cell-based, human; conditions: 1 μg/mL
Summary of the method: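 MTT read-out (1 h, absorbance 550 nm) on d-U937 cells after pre-incubation with 1 or 10 μg/mL compound under two regimes: 4 h, 5% FCS, or 24 h, 10% FCS RPMI1640. Values are percent loss of viability relative to vehicle (0.5% DMSO), so increases are reported as negative.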

[2] = biological target: p38 MAPKα isoform (MAPK14) (Homo sapiens (Human), UniProt Q16539); experiment: p38 MAPKα enzyme inhibition (FRET, Z-LYTE), Method 1; format: biochemical; conditions: Method 1 (Table 4a1)
Sequence of p38 MAPKα isoform (MAPK14) (Q16539 whole entry, canonical isoform): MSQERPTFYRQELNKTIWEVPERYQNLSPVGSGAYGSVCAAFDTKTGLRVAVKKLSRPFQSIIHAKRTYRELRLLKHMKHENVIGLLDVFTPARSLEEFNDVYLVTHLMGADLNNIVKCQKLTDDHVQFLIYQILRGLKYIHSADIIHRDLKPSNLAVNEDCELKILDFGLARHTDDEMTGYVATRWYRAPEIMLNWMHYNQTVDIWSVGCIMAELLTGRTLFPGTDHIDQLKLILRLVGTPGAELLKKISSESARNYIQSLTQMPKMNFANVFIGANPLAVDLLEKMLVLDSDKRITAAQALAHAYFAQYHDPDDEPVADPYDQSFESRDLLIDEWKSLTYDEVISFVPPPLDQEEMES

SMILES | IC50 [2] | Cell viability at time point in d-U937 cells 4 h [1] | Cell viability at time point in d-U937 cells 24 h [1]
CCCNC(=O)c1cccc(Nc2nccc(Oc3ccc(NC(=O)Nc4cc(C(C)(C)C)nn4-c4ccc(OC)cc4)c4ccccc34)n2)c1 [Example 17, 3-(4-(4-(3-(3-tert-butyl-1-(4-methoxyphenyl)-1H-pyrazol-5-yl)ureido)naphthalen-1-yloxy)pyrimidin-2-ylamino)-N-propylbenzamide] | 0.054 µM | −ve (−ve and +ve indicate that the value is below and above respectively, the no significant effect threshold, defined as 30% inhibition at 1 μg/mL at the time point indicated.) | −ve (−ve and +ve indicate that the value is below and above respectively, the no significant effect threshold, defined as 30% inhibition at 1 μg/mL at the time point indicated.)
COCCNC(=O)c1cc(Nc2nccc(Oc3ccc(NC(=O)Nc4cc(C(C)C)nn4-c4ccc(C)cc4)c4ccccc34)n2)cc(OC)c1 [Example 66, 3-((4-((4-(3-(3-isopropyl-1-(p-tolyl)-1H-pyrazol-5-yl)ureido)naphthalen-1-yl)oxy)pyrimidin-2-yl)amino)-5-methoxy-N-(2-methoxyethyl)benzamide] | 0.024 µM | −ve (−ve and +ve indicate that the value is below and above respectively, the no significant effect threshold, defined as 30% inhibition at 1 μg/mL at the time point indicated.) | −ve (−ve and +ve indicate that the value is below and above respectively, the no significant effect threshold, defined as 30% inhibition at 1 μg/mL at the time point indicated.)
COc1ccc(-n2nc(C(C)(C)C)cc2NC(=O)Nc2ccc(Oc3ccnc(Nc4cc(OC)cc(C(=O)NCCN5CCOCC5)c4)n3)c3ccccc23)cc1 [Example 54, 3-((4-((4-(3-(3-(tert-butyl)-1-(4-methoxyphenyl)-1H-pyrazol-5-yl)ureido)naphthalen-1-yl)oxy)pyrimidin-2-yl)amino)-5-methoxy-N-(2-morpholinoethyl)benzamide] | 0.012 µM | −ve (−ve and +ve indicate that the value is below and above respectively, the no significant effect threshold, defined as 30% inhibition at 1 μg/mL at the time point indicated.) | −ve (−ve and +ve indicate that the value is below and above respectively, the no significant effect threshold, defined as 30% inhibition at 1 μg/mL at the time point indicated.)
COc1ccc(-n2nc(C(C)(C)C)cc2NC(=O)Nc2ccc(Oc3ccnc(Nc4cccc(C(=O)NCCN5CCOCC5)c4)n3)c3ccccc23)cc1 [Example 21, 3-((4-((4-(3-(3-(tert-butyl)-1-(4-methoxyphenyl)-1H-pyrazol-5-yl)ureido)naphthalen-1-yl)oxy)pyrimidin-2-yl)amino)-N-(2-morpholinoethyl)benzamide] | 0.01 µM | −ve (−ve and +ve indicate that the value is below and above respectively, the no significant effect threshold, defined as 30% inhibition at 1 μg/mL at the time point indicated.) | −ve (−ve and +ve indicate that the value is below and above respectively, the no significant effect threshold, defined as 30% inhibition at 1 μg/mL at the time point indicated.)
Cc1csc(-n2nc(C(C)(C)C)cc2NC(=O)Nc2ccc(Oc3ccnc(Nc4cccc(C(=O)NCCN5CCOCC5)c4)n3)c3ccccc23)c1 [Example 24, 3-((4-((4-(3-(3-(tert-butyl)-1-(4-methylthiophen-2-yl)-1H-pyrazol-5-yl)ureido)naphthalen-1-yl)oxy)pyrimidin-2-yl)amino)-N-(2-morpholinoethyl)benzamide] | 0.011 µM | −ve (−ve and +ve indicate that the value is below and above respectively, the no significant effect threshold, defined as 30% inhibition at 1 μg/mL at the time point indicated.) | −ve (−ve and +ve indicate that the value is below and above respectively, the no significant effect threshold, defined as 30% inhibition at 1 μg/mL at the time point indicated.)
Cc1ccc(-n2nc(C(C)(C)C)cc2NC(=O)Nc2ccc(Oc3ccnc(Nc4cccc(C(=O)NCCN5CCN(C)CC5)c4)n3)c3ccccc23)cc1 [Example 25, 3-((4-((4-(3-(3-(tert-butyl)-1-(p-tolyl)-1H-pyrazol-5-yl)ureido)naphthalen-1-yl)oxy)pyrimidin-2-yl)amino)-N-(2-(4-methylpiperazin-1-yl)ethyl)benzamide] | 0.013 µM | −ve (−ve and +ve indicate that the value is below and above respectively, the no significant effect threshold, defined as 30% inhibition at 1 μg/mL at the time point indicated.) | −ve (−ve and +ve indicate that the value is below and above respectively, the no significant effect threshold, defined as 30% inhibition at 1 μg/mL at the time point indicated.)
Cc1ccc(-n2nc(C(C)C)cc2NC(=O)Nc2ccc(Oc3ccnc(Nc4cc(Cl)cc(C(=O)NCCN5CCOCC5)c4)n3)c3ccccc23)cc1 [Example 60, 3-chloro-5-((4-((4-(3-(3-isopropyl-1-(p-tolyl)-1H-pyrazol-5-yl)ureido)naphthalen-1-yl)oxy)pyrimidin-2-yl)amino)-N-(2-morpholinoethyl)benzamide] | 0.016 µM | −ve (−ve and +ve indicate that the value is below and above respectively, the no significant effect threshold, defined as 30% inhibition at 1 μg/mL at the time point indicated.) | −ve (−ve and +ve indicate that the value is below and above respectively, the no significant effect threshold, defined as 30% inhibition at 1 μg/mL at the time point indicated.)

Compounds with a lower IC50 [2], results first:

IC50 [2] | SMILES | Cell viability at time point in d-U937 cells 4 h [1] | Cell viability at time point in d-U937 cells 24 h [1]
< 0.001 µM | COc1ccc(-n2nc(C3(C)COC3)cc2NC(=O)Nc2ccc(Oc3ccnc(Nc4cccc(C(=O)NCCN5CCOCC5)c4)n3)c3ccccc23)cc1 [Example 23, 3-((4-((4-(3-(1-(4-methoxyphenyl)-3-(3-methyloxetan-3-yl)-1H-pyrazol-5-yl)ureido)naphthalen-1-yl)oxy)pyrimidin-2-yl)amino)-N-(2-morpholinoethyl)benzamide] | −ve (−ve and +ve indicate that the value is below and above respectively, the no significant effect threshold, defined as 30% inhibition at 1 μg/mL at the time point indicated.) | −ve (−ve and +ve indicate that the value is below and above respectively, the no significant effect threshold, defined as 30% inhibition at 1 μg/mL at the time point indicated.)
< 0.001 µM | COc1cc(Nc2nccc(Oc3ccc(NC(=O)Nc4cc(C(C)C)nn4-c4ccc(C)cc4)c4ccccc34)n2)cc(C(=O)N(C)CCN2CCOCC2)c1 [Example 68, 3-((4-((4-(3-(3-isopropyl-1-(p-tolyl)-1H-pyrazol-5-yl)ureido)naphthalen-1-yl)oxy)pyrimidin-2-yl)amino)-5-methoxy-N-methyl-N-(2-morpholinoethyl)benzamide] | −ve (−ve and +ve indicate that the value is below and above respectively, the no significant effect threshold, defined as 30% inhibition at 1 μg/mL at the time point indicated.) | −ve (−ve and +ve indicate that the value is below and above respectively, the no significant effect threshold, defined as 30% inhibition at 1 μg/mL at the time point indicated.)
0.002 µM | COc1cc(Nc2cc(Oc3ccc(NC(=O)Nc4cc(C(C)C)nn4-c4ccc(C)cc4)c4ccccc34)ncn2)cc(C(=O)NCCN2CCOCC2)c1 [Example 71, 3-((6-((4-(3-(3-isopropyl-1-(p-tolyl)-1H-pyrazol-5-yl)ureido)naphthalen-1-yl)oxy)pyrimidin-4-yl)amino)-5-methoxy-N-(2-morpholinoethyl)benzamide] | −ve (−ve and +ve indicate that the value is below and above respectively, the no significant effect threshold, defined as 30% inhibition at 1 μg/mL at the time point indicated.) | −ve (−ve and +ve indicate that the value is below and above respectively, the no significant effect threshold, defined as 30% inhibition at 1 μg/mL at the time point indicated.)
0.004 µM | COc1ccc(C(=O)NCCO)cc1Nc1nccc(Oc2ccc(NC(=O)Nc3cc(C(C)(C)C)nn3-c3ccc(C)cc3)c3ccccc23)n1 [Example 33, 3-((4-((4-(3-(3-(tert-butyl)-1-(p-tolyl)-1H-pyrazol-5-yl)ureido)naphthalen-1-yl)oxy)pyrimidin-2-yl)amino)-N-(2-hydroxyethyl)-4-methoxybenzamide] | −ve (−ve and +ve indicate that the value is below and above respectively, the no significant effect threshold, defined as 30% inhibition at 1 μg/mL at the time point indicated.) | −ve (−ve and +ve indicate that the value is below and above respectively, the no significant effect threshold, defined as 30% inhibition at 1 μg/mL at the time point indicated.)
0.002 µM | COc1cc(Nc2nccc(Oc3ccc(NC(=O)Nc4cc(C(C)C)nn4-c4ccc(C)cc4)c4ccccc34)n2)cc(C(=O)N2CCN(C)CC2)c1 [Example 69, 1-(3-isopropyl-1-(p-tolyl)-1H-pyrazol-5-yl)-3-(4-((2-((3-methoxy-5-(4-methylpiperazine-1-carbonyl)phenyl)amino)pyrimidin-4-yl)oxy)naphthalen-1-yl)urea] | −ve (−ve and +ve indicate that the value is below and above respectively, the no significant effect threshold, defined as 30% inhibition at 1 μg/mL at the time point indicated.) | −ve (−ve and +ve indicate that the value is below and above respectively, the no significant effect threshold, defined as 30% inhibition at 1 μg/mL at the time point indicated.)
